Data from patent US9783527B2, “Indazole ureas and method of use” (AbbVie Inc., priority 2014, dated 2017).

Columns and labels:
[1] = system: MIA-induced osteoarthritic pain in rats; assay: Osteoarthritic (OA) pain induced by sodium monoiodoacetate (MIA), hind limb grip force; type: in vivo, rat; conditions: male Sprague Dawley rats, grip force 20 days after MIA injection
Protocol: Osteoarthritic (OA) Pain Induced by Sodium Monoiodoacetate (MIA)
Pain behavior was assessed by measurement of hind limb grip force (GF) in adult osteoarthritic rats. Male Sprague Dawley rats, obtained from Charles River Laboratories, (Wilmington, Mass.), weighing 150-175 g, were injected in the unilateral knee join with a single intra-articular injection of sodium monoiodoacetate (MIA, 3 mg/rat). All rats were tested at 20 days following MIA injection. A behavioral measure of activity-induced pain was carried out. Measurements of the peak hind limb grip force were conducted by recording the maximum compressive force (CFmax), in grams of force, exerted on a hind limb strain gauge setup, in a commercially available grip force measurement system (Columbus Instruments, Columbus, Ohio).
During testing, each rat was gently restrained by grasping it around its rib cage and then allowed to grasp the wire mesh frame attached to the strain gauge. The experimenter then moved the animal in a rostral-to-caudal direction until the grip was broken. Each rat was sequentially tested twice at an approximately 2-3 minute interval to obtain a raw mean grip force (CFmax). This raw mean grip force data was in turn converted to a maximum hindlimb cumulative compressive force (CFmax), as the grams of force/kg of body weight, for each animal.
For evaluating the compound effects, the hind limb grip force was conducted 20 days following the intra-articular injection of MIA. A group of age-matched nave (not injected with MIA) animals was added as a comparator to the drug-dosed groups. The vehicle control response for each group of MIA-treated animals was defined as the 0% response (0% effect), whereas the nave control group was defined as the normal response and as 100% effect. The % effect for each dose group was expressed as % return of response to normalcy, compared to the nave group. A percent maximal possible effect (% MPE) of testing compound was calculated according to the formula: (Treatment CFmax−Vehicle CFmax)/Vehicle CFmax]×100). Higher % effect numbers indicate increased relief from the pain in the model, with 100% indicating a return to the level of response seen in normal (non-osteoarthritic) animals. All experiments evaluating drug effects in this model were conducted in a randomized blinded fashion.
The animals were housed in Association for Assessment and Accreditation of Laboratory Animal Care (AAALAC) approved facilities at AbbVie Inc. in a temperature-regulated environment under a controlled 12-hour light-dark cycle, with lights on at 6:00 a.m. Food and water were available ad libitum at all times except during testing. All testing was done following procedures outlined in protocols approved by AbbVie Inc.'s Institutional Animal Care and Use Committee.

human Nav1.7 = human Nav1.7 (Homo sapiens (Human), UniProt Q15858); assay: FRET-based membrane potential assay, recombinant human sodium channel Nav1.7; type: cell-based; conditions: HEK293 cells stably expressing recombinant human Nav1.7; depolarization with veratridine (EC80) + scorpion venom
How it was run: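 IC50 derived by four-parameter Hill fit of percent inhibition of depolarization, measured as peak F440-480/F565-625 ratio over baseline. Stable human Nav1.7 HEK293 cells, dye-loaded with CC2-DMPE and DiSBAC2(3)/VABSC-1 at room temperature, received compound 3 min ahead of veratridine (EC80) plus scorpion venom.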

human Nav1.8 = human Nav1.8 (Homo sapiens (Human), UniProt Q9Y5Y9); assay: FRET-based membrane potential assay, recombinant human sodium channel Nav1.8; type: cell-based; conditions: HEK293 cells stably expressing recombinant human Nav1.8; depolarization with veratridine (EC80) + scorpion venom
How it was run: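 HEK293 cells stably expressing Nav1.8 were loaded with CC2-DMPE/DiSBAC2(3) FRET voltage dyes. Compounds were added 3 min before depolarization with EC80 veratridine plus scorpion venom. The F440-480/F565-625 ratio was read on FLIPR; IC50 came from four-parameter Hill fits.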

human Nav1.7, sequence (Q15858 whole entry): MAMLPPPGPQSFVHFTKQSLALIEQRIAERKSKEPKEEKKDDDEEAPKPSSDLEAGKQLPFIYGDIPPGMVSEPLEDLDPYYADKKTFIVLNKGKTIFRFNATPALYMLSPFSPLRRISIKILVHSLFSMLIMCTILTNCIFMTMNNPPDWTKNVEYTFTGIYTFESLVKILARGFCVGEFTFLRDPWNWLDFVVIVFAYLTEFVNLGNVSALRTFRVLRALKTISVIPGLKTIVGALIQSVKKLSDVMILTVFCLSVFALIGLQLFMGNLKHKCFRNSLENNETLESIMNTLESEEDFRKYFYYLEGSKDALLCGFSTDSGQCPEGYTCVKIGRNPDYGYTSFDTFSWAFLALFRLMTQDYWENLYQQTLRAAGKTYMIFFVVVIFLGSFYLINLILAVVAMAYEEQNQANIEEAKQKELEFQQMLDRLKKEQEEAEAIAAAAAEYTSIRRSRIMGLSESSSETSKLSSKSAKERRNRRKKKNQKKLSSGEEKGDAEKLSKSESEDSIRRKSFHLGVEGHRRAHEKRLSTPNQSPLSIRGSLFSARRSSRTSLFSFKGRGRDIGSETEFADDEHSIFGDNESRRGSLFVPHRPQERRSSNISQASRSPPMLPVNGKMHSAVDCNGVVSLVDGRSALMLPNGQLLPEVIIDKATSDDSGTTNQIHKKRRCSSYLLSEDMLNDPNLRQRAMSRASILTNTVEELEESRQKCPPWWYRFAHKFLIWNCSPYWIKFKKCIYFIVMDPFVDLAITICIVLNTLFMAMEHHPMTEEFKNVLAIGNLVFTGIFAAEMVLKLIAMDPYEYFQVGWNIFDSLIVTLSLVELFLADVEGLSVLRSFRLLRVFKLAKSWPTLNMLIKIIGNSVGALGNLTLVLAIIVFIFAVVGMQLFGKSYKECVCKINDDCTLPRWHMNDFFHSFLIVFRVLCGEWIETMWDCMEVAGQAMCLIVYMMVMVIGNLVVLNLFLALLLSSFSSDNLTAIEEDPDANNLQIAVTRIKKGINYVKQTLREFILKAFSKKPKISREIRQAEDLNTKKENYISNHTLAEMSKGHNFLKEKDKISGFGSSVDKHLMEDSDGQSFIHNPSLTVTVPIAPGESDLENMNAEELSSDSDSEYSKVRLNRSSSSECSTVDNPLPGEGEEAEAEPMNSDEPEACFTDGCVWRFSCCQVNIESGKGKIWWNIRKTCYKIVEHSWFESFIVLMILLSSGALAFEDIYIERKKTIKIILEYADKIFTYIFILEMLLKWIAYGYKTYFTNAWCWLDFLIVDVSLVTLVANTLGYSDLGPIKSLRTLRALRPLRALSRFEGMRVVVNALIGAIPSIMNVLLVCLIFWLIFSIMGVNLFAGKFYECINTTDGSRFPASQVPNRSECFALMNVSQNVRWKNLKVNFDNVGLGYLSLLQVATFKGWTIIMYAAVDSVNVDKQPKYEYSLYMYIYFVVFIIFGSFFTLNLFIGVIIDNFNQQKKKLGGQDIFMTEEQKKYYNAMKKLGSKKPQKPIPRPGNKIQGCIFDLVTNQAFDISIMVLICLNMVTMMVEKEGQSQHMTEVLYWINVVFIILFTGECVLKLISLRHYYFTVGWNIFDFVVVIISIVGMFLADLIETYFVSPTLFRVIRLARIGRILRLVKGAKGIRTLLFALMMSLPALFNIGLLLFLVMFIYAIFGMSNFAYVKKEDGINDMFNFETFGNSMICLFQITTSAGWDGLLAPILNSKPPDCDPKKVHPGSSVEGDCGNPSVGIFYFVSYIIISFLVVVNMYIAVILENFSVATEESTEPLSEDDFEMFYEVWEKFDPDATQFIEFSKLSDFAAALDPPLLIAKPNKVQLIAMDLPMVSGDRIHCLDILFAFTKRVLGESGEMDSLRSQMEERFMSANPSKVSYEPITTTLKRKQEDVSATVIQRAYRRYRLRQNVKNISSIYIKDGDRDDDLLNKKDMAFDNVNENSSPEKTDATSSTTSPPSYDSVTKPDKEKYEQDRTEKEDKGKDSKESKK
human Nav1.8, sequence (Q9Y5Y9 whole entry): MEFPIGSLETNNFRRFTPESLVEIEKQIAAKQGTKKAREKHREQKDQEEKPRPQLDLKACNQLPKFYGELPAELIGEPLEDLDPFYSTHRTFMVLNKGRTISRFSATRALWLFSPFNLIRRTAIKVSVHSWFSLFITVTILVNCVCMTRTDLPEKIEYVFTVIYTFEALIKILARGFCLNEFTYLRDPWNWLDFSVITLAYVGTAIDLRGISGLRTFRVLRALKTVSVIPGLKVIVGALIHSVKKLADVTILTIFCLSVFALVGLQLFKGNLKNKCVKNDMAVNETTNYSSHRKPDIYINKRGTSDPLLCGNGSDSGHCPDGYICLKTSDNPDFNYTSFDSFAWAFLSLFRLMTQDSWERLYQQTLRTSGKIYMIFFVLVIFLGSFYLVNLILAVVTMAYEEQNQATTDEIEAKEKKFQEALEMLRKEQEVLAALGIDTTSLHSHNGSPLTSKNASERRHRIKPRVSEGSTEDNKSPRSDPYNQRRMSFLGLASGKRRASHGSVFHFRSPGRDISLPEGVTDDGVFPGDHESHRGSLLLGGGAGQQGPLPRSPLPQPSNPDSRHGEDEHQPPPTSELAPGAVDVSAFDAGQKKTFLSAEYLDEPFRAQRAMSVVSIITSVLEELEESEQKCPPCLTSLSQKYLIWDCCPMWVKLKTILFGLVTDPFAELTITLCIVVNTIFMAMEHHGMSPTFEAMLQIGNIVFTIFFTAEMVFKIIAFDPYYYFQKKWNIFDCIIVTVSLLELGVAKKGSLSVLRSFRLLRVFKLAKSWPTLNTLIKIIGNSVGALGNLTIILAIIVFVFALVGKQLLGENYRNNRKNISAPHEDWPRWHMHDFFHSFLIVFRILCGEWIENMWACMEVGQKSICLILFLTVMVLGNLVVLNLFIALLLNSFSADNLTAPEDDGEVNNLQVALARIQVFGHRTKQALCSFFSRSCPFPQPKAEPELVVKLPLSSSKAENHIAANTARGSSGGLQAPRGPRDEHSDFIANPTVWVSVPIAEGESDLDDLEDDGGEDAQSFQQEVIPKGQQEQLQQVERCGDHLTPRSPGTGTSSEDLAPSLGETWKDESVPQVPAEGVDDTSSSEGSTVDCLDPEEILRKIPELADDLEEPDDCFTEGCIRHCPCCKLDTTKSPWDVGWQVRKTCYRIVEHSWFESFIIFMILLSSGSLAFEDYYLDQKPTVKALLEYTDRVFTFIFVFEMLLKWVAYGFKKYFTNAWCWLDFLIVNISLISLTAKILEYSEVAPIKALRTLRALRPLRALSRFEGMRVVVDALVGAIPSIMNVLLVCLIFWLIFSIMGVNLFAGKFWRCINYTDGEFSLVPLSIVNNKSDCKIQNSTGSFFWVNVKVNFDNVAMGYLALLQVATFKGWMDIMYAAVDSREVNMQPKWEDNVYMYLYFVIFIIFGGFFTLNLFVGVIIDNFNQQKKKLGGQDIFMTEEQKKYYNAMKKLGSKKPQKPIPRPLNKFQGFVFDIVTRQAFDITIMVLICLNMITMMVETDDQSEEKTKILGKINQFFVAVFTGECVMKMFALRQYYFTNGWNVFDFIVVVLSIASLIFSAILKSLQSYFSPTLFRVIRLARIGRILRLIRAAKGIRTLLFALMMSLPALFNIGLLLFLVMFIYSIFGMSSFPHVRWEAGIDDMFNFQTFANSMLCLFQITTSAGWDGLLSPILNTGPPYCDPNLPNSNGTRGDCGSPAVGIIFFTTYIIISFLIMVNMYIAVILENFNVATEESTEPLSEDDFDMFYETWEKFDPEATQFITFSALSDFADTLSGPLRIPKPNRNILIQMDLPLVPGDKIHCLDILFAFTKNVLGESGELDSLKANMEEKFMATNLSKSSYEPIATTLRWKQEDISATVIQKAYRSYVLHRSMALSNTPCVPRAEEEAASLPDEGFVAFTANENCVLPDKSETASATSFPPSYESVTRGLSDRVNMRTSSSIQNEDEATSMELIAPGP

Row | SMILES | OA MPE (%) ([1]; OA dose 30 mg/kg) | IC50 (human Nav1.7) [nM] | OA MPE (%) ([1]; OA dose 10 mg/kg) | IC50 (human Nav1.8) [nM]
1 | O=C(CN1CCN(c2cccc3c2cnn3-c2ccccc2F)C1=O)NC1CC1 [Example 13, N-cyclopropyl-2-{3-[1-(2-fluorophenyl)-1H-indazol-4-yl]-2-oxoimidazolidin-1-yl}acetamide] | 47 |  |  | 
2 | O=C1N(Cc2nc(C(F)(F)F)cs2)CCN1c1cccc2c1cnn2-c1ccccc1F [Example 14, 1-[1-(2-fluorophenyl)-1H-indazol-4-yl]-3-{[4-(trifluoromethyl)-1,3-thiazol-2-yl]methyl}imidazolidin-2-one] | 60 | 618 |  | 
3 | O=C1N(CC(=O)N2C[C@@H]3C[C@H]2CO3)CCN1c1cccc2c1cnn2-c1ccccc1F [Example 16, 1-[1-(2-fluorophenyl)-1H-indazol-4-yl]-3-{2-[(1S,4S)-2-oxa-5-azabicyclo[2.2.1]hept-5-yl]-2-oxoethyl}imidazolidin-2-one] | 67 | 738 |  | 
4 | O=C(CN1CCN(c2cccc3c2cnn3-c2ccccc2F)C1=O)N1CCCC(F)C1 (stereo not shown) [Example 17, 1-[1-(2-fluorophenyl)-1H-indazol-4-yl]-3-[2-(3-fluoropiperidin-1-yl)-2-oxoethyl]imidazolidin-2-one] | 91 |  |  | 
5 | O=C1N(CC(=O)N2C[C@@H](F)C[C@@H]2c2cc(F)ccc2F)CCN1c1cccc2c1cnn2-c1ccccc1F [Example 18, 1-{2-[(2R,4S)-2-(2,5-difluorophenyl)-4-fluoropyrrolidin-1-yl]-2-oxoethyl}-3-[1-(2-fluorophenyl)-1H-indazol-4-yl]imidazolidin-2-one] |  | 578 | 65 | 
6 | O=C1N(c2cccnc2)CCN1c1cccc2c1cnn2-c1ccccc1F [Example 19, 1-[1-(2-fluorophenyl)-1H-indazol-4-yl]-3-(pyridin-3-yl)imidazolidin-2-one] |  | 2920 | 67 | 
7 | O=C1N(c2ccncc2)CCN1c1cccc2c1cnn2-c1ccccc1F [Example 20, 1-[1-(2-fluorophenyl)-1H-indazol-4-yl]-3-(pyridin-4-yl)imidazolidin-2-one] |  |  | 91 | 
8 | Cc1cncc(CN2CCN(c3cccc4c3cnn4-c3ccccc3F)C2=O)n1 [Example 42, 1-[1-(2-fluorophenyl)-1H-indazol-4-yl]-3-[(6-methylpyrazin-2-yl)methyl]imidazolidin-2-one] |  |  | 35 | 
9 | O=C(CN1CCN(c2cccc3c2cnn3-c2ccccc2F)C1=O)N1CCC[C@H](F)C1 [Example 54, 1-[1-(2-fluorophenyl)-1H-indazol-4-yl]-3-{2-[(3S)-3-fluoropiperidin-1-yl]-2-oxoethyl}imidazolidin-2-one] | 57 |  |  | 
10 | O=C(CN1CCN(c2cccc3c2cnn3-c2ccccc2F)C1=O)NC1CCCC(F)(F)C1 (stereo not shown) [Example 340, N-(3,3-difluorocyclohexyl)-2-{3-[1-(2-fluorophenyl)-1H-indazol-4-yl]-2-oxoimidazolidin-1-yl}acetamide] |  | 2640 |  | 637
11 | O=C(CN1CCN(c2cccc3c2cnn3-c2ccccc2F)C1=O)NC1CCC(F)(F)C1 (stereo not shown) [Example 341, N-(3,3-difluorocyclopentyl)-2-{3-[1-(2-fluorophenyl)-1H-indazol-4-yl]-2-oxoimidazolidin-1-yl}acetamide] |  | 2900 |  | 991
12 | O=C(CN1CCN(c2cccc3c2cnn3-c2ccccc2F)C1=O)N1C[C@H]2CCC[C@H]2C1 [Example 342, 1-[1-(2-fluorophenyl)-1H-indazol-4-yl]-3-{2-[(3aR,6aS)-hexahydrocyclopenta[c]pyrrol-2(1H)-yl]-2-oxoethyl}imidazolidin-2-one] |  | 2210 |  | 746
13 | O=C(CN1CCN(c2cccc3c2cnn3-c2ccccc2F)C1=O)NCCC(F)(F)F [Example 343, 2-{3-[1-(2-fluorophenyl)-1H-indazol-4-yl]-2-oxoimidazolidin-1-yl}-N-(3,3,3-trifluoropropyl)acetamide] |  | 3060 |  | 1270
14 | NC(=O)[C@@H](Cc1ccccc1)NC(=O)CN1CCN(c2cccc3c2cnn3-c2ccccc2F)C1=O [Example 345, Nα-({3-[1-(2-fluorophenyl)-1H-indazol-4-yl]-2-oxoimidazolidin-1-yl}acetyl)-D-phenylalaninamide] |  | 6060 |  | 1780
15 | CC(C)[C@H](NC(=O)CN1CCN(c2cccc3c2cnn3-c2ccccc2F)C1=O)C(=O)NC(C)(C)C [Example 346, N-tert-butyl-N^2-({3-[1-(2-fluorophenyl)-1H-indazol-4-yl]-2-oxoimidazolidin-1-yl}acetyl)-L-valinamide] |  | 2040 |  | 960
16 | O=C(CN1CCN(c2cccc3c2cnn3-c2ccccc2F)C1=O)NC1CCCC1(F)F (stereo not shown) [Example 347, N-(2,2-difluorocyclopentyl)-2-{3-[1-(2-fluorophenyl)-1H-indazol-4-yl]-2-oxoimidazolidin-1-yl}acetamide] |  | 3450 |  | 1290
17 | O=C(CN1CCN(c2cccc3c2cnn3-c2cc(Cl)cc(Cl)c2)C1=O)N1CC[C@H](F)C1 [Example 348, 1-[1-(3,5-dichlorophenyl)-1H-indazol-4-yl]-3-{2-[(3S)-3-fluoropyrrolidin-1-yl]-2-oxoethyl}imidazolidin-2-one] |  | 13400 |  | 3260
18 | O=C1CC(NC(=O)CN2CCN(c3cccc4c3cnn4-c3ccccc3F)C2=O)C1 [Example 349, 2-{3-[1-(2-fluorophenyl)-1H-indazol-4-yl]-2-oxoimidazolidin-1-yl}-N-(3-oxocyclobutyl)acetamide] |  | 15100 |  | 7570
19 | O=C(CN1CCN(c2cccc3c2cnn3-c2ccccc2F)C1=O)NC1CC(O)C1 (stereo not shown) [Example 350, 2-{3-[1-(2-fluorophenyl)-1H-indazol-4-yl]-2-oxoimidazolidin-1-yl}-N-(3-hydroxycyclobutyl)acetamide] |  | 9220 |  | 12300
20 | CN(C(=O)CN1CCN(c2cccc3c2cnn3-c2ccccc2F)C1=O)C1CCC1 [Example 351, N-cyclobutyl-2-{3-[1-(2-fluorophenyl)-1H-indazol-4-yl]-2-oxoimidazolidin-1-yl}-N-methylacetamide] |  | 3480 |  | 1850
21 | CC1CN(C(=O)CN2CCN(c3cccc4c3cnn4-c3ccccc3F)C2=O)C1 [Example 352, 1-[1-(2-fluorophenyl)-1H-indazol-4-yl]-3-[2-(3-methylazetidin-1-yl)-2-oxoethyl]imidazolidin-2-one] |  | 1510 |  | 2580
22 | O=C(CN1CCN(c2cccc3c2cnn3-c2ccccc2F)C1=O)NC1(C(F)(F)F)CCC1 [Example 353, 2-{3-[1-(2-fluorophenyl)-1H-indazol-4-yl]-2-oxoimidazolidin-1-yl}-N-[1-(trifluoromethyl)cyclobutyl]acetamide] |  | 3310 |  | 1690
23 | O=C(CN1CCN(c2cccc3c2cnn3-c2ccccc2F)C1=O)NC1CC(=NO)C1 (stereo not shown) [Example 354, 2-{3-[1-(2-fluorophenyl)-1H-indazol-4-yl]-2-oxoimidazolidin-1-yl}-N-[3-(hydroxyimino)cyclobutyl]acetamide] |  | 6500 |  | 16600
24 | CON=C1CC(NC(=O)CN2CCN(c3cccc4c3cnn4-c3ccccc3F)C2=O)C1 (stereo not shown) [Example 355, 2-{3-[1-(2-fluorophenyl)-1H-indazol-4-yl]-2-oxoimidazolidin-1-yl}-N-[3-(methoxyimino)cyclobutyl]acetamide] |  | 9230 |  | 4050
